The values that follow come from US7482321B2, “Extended glucagon-like peptide-1 analogs” (Eli Lilly and Company, priority 2002, dated 2009).

Ends that are not written are not given here.

The conditions of series [1]: rat, in vivo, iv, 10 ug/kg.
Protocol: (§1) Pharmacokinetic parameters were determined for the following 5 different extended GLP-1 peptides:
(§2) Parameters were determined following a single intravenous dose of 10 μg/kg in four different rats.
The nature of a further series: in vivo. The settings on record: Sprague Dawley, rat, iv, 10 ug/kg, Plasma Concentration.

Protocol for in vivo: as §1, §2

Usually AUC(0-t) stands for the area under the concentration-time curve up to a stated or last time point. Read a high AUC(0-t) as more exposure. As usually defined, the clearance is the volume of plasma or blood freed of the substance per unit of time. High values mean a high capacity for elimination, low ones a low capacity for elimination. Usually Cmax stands for the highest concentration seen after dosing. Usually Vd stands for the apparent volume that relates the amount in the body to the concentration in plasma or blood. A low value points to confinement near the circulation. Usually half-life stands for the time needed for the level to fall by half in the phase considered. Read a low half-life as rapid decline. Turning to “HVEGTFTSDWSSYLEEQAAKEFIAWLIKGRGSSGAPPPS [Compound 5]”, the AUC(0-t) in series [1] (AUC0-last) is 12.5 ng·h/mL. In addition, the clearance in series [1] (Cl) was found to be 13.4 mL/min/kg. This sequence also gave a Cmax in series [1] (Cmax) of 35.9 ng/mL. For the same sequence, the Vd in series [1] (Vss) amounted to 0.179 L/kg. The sequence also returned a half-life in series [1] (t½) of 11.9 min. In “in vivo”, the level at 5 min is 35.9 ng/mL, the level at 0.25 h turned out to be 16.1 ng/mL and the level at 2 h is less than 0.15 ng/mL.
